According to ChEMBL document CHEMBL3301361, “Experimental in vitro DMPK and physicochemical data on a set of publicly disclosed compounds”:

Experiment: physchem
Conditions: octan-1-ol/water, pH 7.4

SMILES	logD
COc1cc(C(=O)N2CC[C@](CCN3CCC(C(N)=O)(c4ccccc4)CC3)(c3ccc(Cl)c(Cl)c3)C2)cc(OC)c1OC	3.23
Cc1ccnc(NCc2ccc(Cl)cc2)c1	3.6
O=C(NCc1ccncn1)c1ccc(Oc2ccc(C#C[C@@]3(O)CN4CCC3CC4)cc2)cc1	1.77
CNC1=Nc2ncccc2C(c2ccco2)=NC1c1ccns1 (stereo not given)	1.44
O=C1C(=O)c2ccccc2-c2ccccc21 [9,10-PHENANTHRENEQUINONE]	2.6
NC(=O)c1cccc(C[C@H]2C[C@H]3CC[C@@H](C2)N3Cc2ccccc2)c1	1.19
O=C(NCC1CCOCC1)c1nc(OS(=O)(=O)CCC(F)(F)F)ccc1NC(=O)c1ccc(Cn2ccnn2)c2ccccc12	4.2
COC(=O)N1CCN(C(=O)Cc2ccc(Cl)c(Cl)c2)[C@@H](CN2CCCC2)C1	1.97
CC(CC(=O)NCc1ccccc1)C1CCCO1 (stereo not given)	2.1
Clc1ccc([C@]23CNC[C@H]2C3)cc1Cl [AMITIFADINE]	1.96
O=C(O)CCCc1ccc(N(CCCl)CCCl)cc1 [CHLORAMBUCIL]	1.47
CC12NC(Cc3ccccc31)c1ccccc12 (stereo not given)	1.7
Oc1cccc(O[C@H]2C[C@H]3CC[C@@H](C2)N3Cc2ccccc2)c1	2.3
O=C(N[C@H]1CN2CCC1CC2)c1ccc(-c2ccccc2)s1	1.9
CCC1(c2cccc(O)c2)CCCCN(C)C1 (stereo not given) [MEPTAZINOL]	0.8
CC(C)C1NCCc2c1sc1ccccc21 (stereo not given)	2.8
CCOC(=O)Nc1cccc([C@@H](c2ccc(C(=O)N(C)CC)cc2)N2CCN(Cc3nc[nH]c3C)CC2)c1	2.32
S=C(NC1CCCCC1)N1CCC(c2cnc[nH]2)CC1 [THIOPERAMIDE]	2.3
c1cncc(-c2ccc(-c3nnc(C4CN5CCC4CC5)o3)o2)c1 (stereo not given)	1.2

Same assay, conditions: octan-1-ol/water, pH 7.4, LogD7.4

SMILES	logD
O=C(O)CC[C@@H]1c2ccccc2C[C@H]1NC(=O)c1cc2sc(Cl)c(Cl)c2[nH]1	2.84
Nc1nc(SCc2ccccc2)nc2c1ncn2[C@@H]1O[C@H](CO)[C@@H](O)[C@H]1O	1.24
COc1ccc(C(=O)Nc2cc(NC(=O)c3cccc(N(C)C)c3)ccc2C)cc1	3.17
O=C(Cc1ccccn1)c1ccc(Cl)cc1	2.96
Nc1ccc2ncnc(Nc3ccc(F)c(Cl)c3)c2c1	2.64
COc1ccc(-c2cc(NC(=O)Cc3ccc4ccccc4c3)[nH]n2)cc1OC	3.1
Cc1cc(Nc2ccc(F)cc2)nc(N)n1	2.08
COc1cc2ncnc(N3CC[C@@H](Oc4cnc5ccccc5n4)C3)c2cc1OC	4.04
COc1cccc([C@H](O)C2CCN(CCc3ccc(F)cc3)CC2)c1OC [VOLINANSERIN]	1.7
FC(F)c1nc2ccccc2[nH]1	2.02
COc1cc(C(=O)Nc2ccc(N3CCOCC3)cc2)nc2c(N3CCN(C)CC3)cc(F)cc12	3.85
O=C(NCCCNc1nc(Nc2cccc(NC(=O)N3CCCC3)c2)ncc1Br)c1cccs1	4.13
CC(C)Cn1c(=O)n(C)c(=O)c2c(C(=O)N3C[C@H](O)CO3)c(Cc3ccccc3C(F)(F)F)sc21	3.15
CC(C)Cn1c(=O)n(C)c(=O)c2c(C(=O)N3CC=CC3)c(Cc3ccccc3C(F)(F)F)sc21	3.53
O=C(Oc1ccccc1)N1CCOCC1	1.3
Cc1ccc2c(-c3ccnc4cc(Cl)ccc34)c(C)n(CC(=O)O)c2c1	2.41
Cc1cc(Nc2ncc(F)c(N[C@H]3[C@@H](C(N)=O)[C@@H]4C=C[C@H]3C4)n2)ccc1N1CCN(C)CC1	2.9
COc1cc2nnc(C(N)=O)c(Nc3cccc(Cl)c3F)c2cc1N1CCN(C)CC1	2.35
COc1cc(F)ccc1-c1cccc(CNC2CCCC2)c1	2.29
Nc1ccc2c(c1)-c1ccccc1C(=O)C2=O	2.39
O=C(O)CCCS(=O)(=O)c1cccc(C(=O)N2CCC(N3CCC(Oc4ccc(Cl)c(Cl)c4)CC3)CC2)c1	0.66
O=C(Nc1ccc(Cl)c(Cl)c1)N1CCN(C[C@@H]2CCCN(CC3CC3)C2)CC1	2.54

SMILES	logD
CC(C)C(NC(=O)Cn1c(-c2cccc(C(=O)O)c2)ccc(NC(=O)OCc2ccccc2)c1=O)C(=O)C(F)(F)F (stereo not given)	1.2
O=C(NC1Cc2ccccc2N(CCCO)C1=O)c1cc2cc(Cl)sc2[nH]1 (stereo not given)	3.49
COc1ccccc1-c1coc2cc(O)ccc2c1=O	2.55
c1ccc(CN(Cc2ccccc2)c2nn[nH]n2)cc1	1.37
O=C1CCCc2nc(C#Cc3ccccc3)ccc21	3.53
CN(C)CCNCc1ccc(Nc2ncc3cc(-c4ccncc4)ccc3n2)cc1	1.4
COC(=O)c1c(O)cccc1OC/C=C/c1ccc(F)c(-c2cc(C(=O)O)no2)c1	0.66
CCCc1c(OCc2cccc(NC(=O)Cc3ccccc3C(=O)O)c2)ccc(C(C)=O)c1O	2.95
O=C(NCC1CCCCCC1)c1cc(-c2cccnc2N2CCC(C(=O)O)CC2)ccc1Cl	2.53
Cc1ccc(-c2c[nH]nn2)cc1	2.58
COc1ccc(-c2cc(O)c3cc(Cl)ccc3n2)cc1	2.7
Nc1n[nH]c2c(Cl)cccc12	1.7
CC(C)C(NC(=O)Cn1c(-c2ccc(F)cc2)ncc(NC(=O)OCc2ccccc2)c1=O)C(=O)C(F)(F)F (stereo not given)	2.47
O=C(Nc1ccc(N2CCOCC2)nc1)c1nnc(Nc2ccc(F)c(F)c2)o1	2.9
Cc1cn([C@H]2CCCN(Cc3ccc(C(=O)O)c(Oc4cccc(F)c4)c3)C2)c(=O)[nH]c1=O	-1.03
C=CCn1c(=O)c2c(-c3nc(C#N)cn3C)n(Cc3ccnc4ccc(Cl)cc34)nc2n(CC2CC2)c1=O	3.92
CNc1nc2ccccc2n1Cc1sc2c(c1C(=O)N1C[C@H](O)CO1)c(=O)n(C)c(=O)n2CC(C)C	1.77
CN(C)CC1CCn2c(c(C3=C(c4cn(C)c5ccccc45)C(=O)NC3=O)c3ccccc32)C1 (stereo not given)	2.88
C#CCN(c1ccnc(Nc2ccc(OCC(O)CN(C)C)cc2)n1)c1cc(Cl)ccc1Cl (stereo not given)	3.2
Cc1cn([C@H]2CCCN(Cc3cccc(Oc4cccc(Br)c4)c3)C2)c(=O)[nH]c1=O	3.68
CCCN(CCC)S(=O)(=O)c1ccc(C(=O)O)cc1 [PROBENECID]	0.03
Clc1cccc2[nH]ncc12	2.5

SMILES	logD
c1ccc(-c2ccc3ccccc3n2)cc1 [2-PHENYLQUINOLINE]	4
CNC(=O)C1(N2CCCCC2=O)CCN(CC[C@H](CN(C)C(=O)c2cc(C#N)cc3ccccc23)c2ccc(Cl)c(Cl)c2)CC1	2.5
CCN(C(=O)Cc1ccc(S(C)(=O)=O)cc1)C1CCN(CCC(c2ccccc2)c2ccc(C#N)cc2)CC1 (stereo not given)	2.76
CCCc1c(OCCCSc2ccc(CC(=O)O)cc2Cl)ccc2c(CC)noc12 [L-165461]	3.92
COc1ccc(-c2ccc3c(N4CCOC[C@@H]4C)nc(N4CCOC[C@@H]4C)nc3n2)cc1C(N)=O	2.82
Nc1ncnc2sccc12	1.19
CCOc1cccc(Nc2nnc(C(=O)Nc3ccc(N4CCOCC4)nc3)o2)c1	3.6
CCOC(=O)c1coc2ccccc2c1=O	1.81
CS(=O)(=O)Nc1cc(Nc2nccc(Nc3c(Cl)ccc4c3OCO4)n2)cc(C(N)=O)c1	2.28
O=C(COCc1ccccn1)N1CCN(c2ccc(Cl)cc2Cl)CC1	3.47
N#Cc1ccc(OCC(=O)O)c(-c2ccccc2)c1	-1.08
CC(=O)c1ccc(S(=O)(=O)NC(=O)NC2CCCCC2)cc1 [ACETOHEXAMIDE]	-0.49
CC(C)Cn1c(=O)n(C)c(=O)c2c(SCCCO)c(Cc3ccccc3C(F)(F)F)sc21	4.05
Cc1cc(Oc2ccnc(Nc3ccc(N4CCOCC4)cc3)c2)c(-c2ccccn2)nc1C	2.59
Cc1ccc(-c2ccc(S(=O)(=O)N3CCC[C@H]3C(=O)N3CC[C@@H](N)C3)cc2F)o1	1.2
O=S(=O)(Nc1nccs1)c1ccc(O)cc1	0.36
CCN(CCO)CCCC(C)Nc1ccnc2cc(Cl)ccc12 (stereo not given) [HYDROXYCHLOROQUINE]	0.77
CN1CCC(=C2c3ccccc3C=Cc3ccccc32)CC1 [CYPROHEPTADINE]	3.06
COC(=O)c1ccc(NC(=O)c2cc(OC)c(OC)c(OC)c2)cc1	3.2
COc1cc2nnc(C(N)=O)c(Nc3ccc(C)cc3F)c2cc1N1CCN(C)CC1	2.36
CCC[C@H](CO)Nc1nc(SCc2ccccc2)nc2nc(N)sc12	3.8
O=C(Cc1ccccc1)Nc1nccs1	2.5

SMILES	logD
O=C(NC1Cc2ccccc2N(CCO)C1=O)c1cc2cc(Cl)sc2[nH]1 (stereo not given)	3.05
Cc1ncc(-c2ccnc(Nc3ccc(C(N)=O)c(F)c3)n2)n1C(C)C	2.8
CC1(c2ccccc2)CC(=O)NC(N)=N1 (stereo not given)	0.62
O=C(COCc1ccncc1)N1CCN(c2ccc(Cl)cc2F)CC1	2.55
Nc1ncccc1NCc1cccc(-c2cccnc2)c1	3
c1ccc([C@H]2CN3CCSC3=N2)cc1 [LEVAMISOLE]	0.81
Fc1ccc(C2CCN(C(=S)COCc3ccncc3)CC2)c(Cl)c1	4.23
COc1ccccc1C(=O)NCC12CC3CC(CC(C3)C1)C2	4.43
COc1cc(N2CCN(CCS(C)(=O)=O)CC2)ccc1Nc1ncc(Cl)c(-c2cnc3ccccn23)n1	3.1
COc1ncc(-c2ccc3nccc(-c4ccnnc4)c3c2)cc1NS(=O)(=O)c1ccc(F)cc1F [OMIPALISIB]	2.5
CC(C)Cn1c(=O)n(C)c(=O)c2c(C(=O)N3CC[C@@H](O)C3)c(Oc3cccc4ccccc34)sc21	2.87
O=C(NCc1ccncc1)c1ccc(Oc2ccccc2)cc1	3.26
Cc1noc(C)c1CCC1CCN(S(=O)(=O)CC2(N(O)C=O)CCC(F)(F)CC2)CC1	2.1
NC1(C(=O)N[C@@H](CCN2CCCCC2)c2ccc(Cl)cc2)CCN(c2ncnc3[nH]ccc23)CC1	2.4
Cc1ccc(-c2ncc(CN3CCOCC3)s2)cc1NC(=O)c1ccc(OCc2ccccn2)cc1	3.1
Cc1cnc(NC(=O)c2cc(Oc3cnc(C(=O)N(C)C)nc3)c3cc(C)oc3c2)cn1 [NERIGLIATIN]	2.1
O=c1c(-c2ccc(O)c(O)c2)coc2cc(O)ccc12	1.88
COc1ccc(-c2c(F)ccc3c(N)c(C(=O)NC4CC4)nnc23)c(OC)n1	3.37
COc1ccc(NC(=O)CSc2nnc(C)n2-c2ccc(C)cc2)cc1	2.94
CS(=O)(=O)c1ccc(CC(=O)N(C2CC2)C2CCN(CCC(c3ccccc3)c3ccccc3)CC2)cc1	2.89
